In one data set the test system is Ramos B cells. The data set can be described thus: Ramos pErk assay (anti-IgM stimulated B cells, pErk MSD). Type of data set: cell-based. To be noted: Homo sapiens, Ramos, anti-IgM 5 μg/ml, pErk readout, read-out: average pIC50 (converted). Here is the method:
Ramos B cells (human B cells of Burkitt's Lymphoma) are stimulated using anti-IgM. […] The subsequent autophosphorylation of Syk leads to initiation of a signalling cascade resulting in B cell activation via the Erk MAP Kinase pathway. As a result Erk is phosphorylated and following cell lysis is detected by an immune capture assay.
Cells were plated at a density of 2.5×10^5/well in a volume of 25 μl assay medium (RPMI containing 10% heat inactivated foetal calf serum, 1% L-glutamine) in 96 v-well polypropylene plates. 25 μl appropriately diluted compound solution was added and the plate incubated for 30 min at 37° C. with 5% CO2. Cells were stimulated with 5 μl Fab′2 fragments of goat anti-human IgM (5 μg/ml final) for 7 min at 37° C. Cells are lysed by the addition of 55 μL 2×RIPA lysis buffer for 2 h at 4° C. Lysate may be frozen at this point at −80° C.
50 μl cell lysate was transferred to a 96 well MSD plate coated with anti-pErk1/2 (Thr/Tyr: 202/204; 185/187) capture antibody and incubated for 16 hours at 4° C. or 3 hours at room temperature. The plate was washed and an anti-pErk detection antibody added (25 μl/well) for 1 hour at room temperature. This was removed, 150 μL MSD read buffer added and the resultant electrochemiluminescence signal measured.
Compound was prepared as a 10 mM stock in DMSO and a dilution series prepared in DMSO using 9 successive 5-fold dilutions. This dilution series was diluted a further 1:100 with assay medium to give the final concentration range to be tested of 5×10^−5 to 2.56×10^−11M. Compound dilutions were prepared using the Biomek 2000 and Biomek Nx automated robotic pipetting systems.

For data set [1] the following is noted: further phase II clinical trial, allergic rhinitis; cited from earlier work.
For data set [2] the following is noted: dosed intranasally, phase I/II, allergic rhinitis; cited from earlier work.
For data set [3] the following is noted: cited from earlier work.
A further data set deals with B lymphoma (BKS-2). Particulars: murine BKS-2 B lymphoma model; cited from earlier work.

Structures are written as SMILES.

On to `Cc1ccnc(COc2ccc(Cl)nc2-c2ccc3c(c2)CNCC3)c1` [Example 49, 7-(6-chloro-3-{[(4-methyl-2-pyridinyl)methyl]oxy}-2-pyridinyl)-1,2,3,4-tetrahydroisoquinoline], for which the IC50 in the data set with Ramos B cells was 0.158 to 6.31 µM.

In the case of `Oc1cccc(Nc2ncc(F)c(Nc3cccc(O)c3)n2)c1` [Example R112], the efficacy versus placebo result in data set [1] is given as “lack of efficacy versus placebo”. Further, in data set [2], the PGD2 entry was “statistically significant decrease” and the clinical safety result is reported as “safe across a range of indicators”.

With `COc1cc(Nc2ncc(F)c(Nc3ccc4c(n3)N(COP(=O)(O)O)C(=O)C(C)(C)O4)n2)cc(OC)c1OC` [Example R788, fostamatinib disodium], the therapeutic effect result in data set [3] (patients with DLBCL and CLL/SLL) is on record as “therapeutic benefit”. Besides, the tolerability entry in data set [3] (patients with relapsed or refractory B-Cell NHL) was “well-tolerated”.

In the case of `COc1cc(/C=C/C(=O)CC(=O)/C=C/c2ccc(O)c(OC)c2)ccc1O` [curcumin], the “tumour burden as measured by the total splenocyte number” value in the data set with B lymphoma (BKS-2) is reported as “significant reduction of tumour burden”.

Source of the values: US20140005177A1, “PYRIDINYL- AND PYRAZINYL-METHYLOXY-ARYL DERIVATIVES USEFUL AS INHIBITORS OF SPLEEN TYROSINE KINASE (SYK)” (GLAXO GROUP LIMITED, priority 2011, published 2014).
